B1: FMS-Like Tyrosine Kinase 3 (FLT-3) ligand (protein, UniProt P49771 27-235, looked up)
Fms-related tyrosine kinase 3 …: TQDCSFQHSPISSDFAVKIRELSDYLLQDYPVTVASNLQDEELCGGLWRLVLAQRWMERLKTVAGSKMQGLLERVNTEIHFVTKCAFQPPPSCLRFVQTNISRLLQETSEQLVALKPWITRQNFSRCLELQCQPDSSTLPPPWSPRPLEATAPTAPQPPLLLLLLLPVGLLLLAAAWCLHWQRTRRRTPRPGEQVPPVPSPQDLLLVEH

Legend:
pAKT = assay: Cytokine-stimulated phosphorylation in AML cell populations (BM or PB of AML patients); type: cell-based, human
Procedure: (§1) To assess the signal transduction response after growth factor simulation, a series comprising two sets of tubes including about 3×10^6 cells/100 μL were incubated at 37° C. for 30 minutes. After this pre-incubation period, tubes with then processes with either a stimulant or inhibitor. […] To examine the effects of protein phosphorylation inhibition, tubes were incubated with an inhibitor cocktail comprising 100 μM/100 μL UO126, 1 μM/100 μL LY294002, and 1 μM/100 μL rapamycin. One unstimulated tube receiving no stimulant or inhibitor was processed to assess basal levels of phospho-protein expression. After stimulation the cells were immediately fixed in 10% formaldehyde solution at 37° C. Pre-labeling with CD13, CD16 and CD64 antibodies was carried out 20 minutes prior to formaldehyde fixation. After fixation, one set of tubes was permeabilized without methanol for pAKT, pERK and pS6 staining and the other for 80% methanol permeabilized for pSTAT3 and pSTAT5 staining. After permeablization, the cells were washed in PBS with 2% BSA and blocked by re-suspended in 75 μL of PBS comprising 25% heat inactivated normal mouse serum, 25% normal rabbit serum. To stain cells with fluorescent conjugated monoclonal antibodies, samples were incubated on ice for 45 minutes in 100 μL of an antibody staining solution including either: 1) CD15-Pacific Orange, CD34-Phycoerythrin-Texas Red, CD117-Phycoerythrin-Cyanin 5.5, CD45-Allophycocyanin-Alexa Fluor 750 (or CD45-Pacific Orange, in which case CD15-Pacific Orange was omitted), pS6-Pacific Blue, pERK-Alexa Fluor 488 and pAKT-Alexa Fluor 647 or 2) CD15-Pacific Orange, CD34-Phycoerythrin-Texas Red, CD117-Phycoerythrin-Cyanin 5.5, CD45-Allophycocyanin-Alexa Fluor 750 or CD45-Pacific Blue, pSTAT3-Alexa Fluor 488 and pSTAT5-Phycoerythrin. The stained cells were washed twice with ice cold PBS containing 2% BSA and centrifuged at 800 g for 6 minutes at 4° C. The supernatant was discarded and cells re-suspended in 250 μL of chilled wash buffer for data acquisition. Stained cells were examined using either GALIOS flow cytometer (Beckman Coulter) or CYAN ADP (Beckman Coulter) equipped with 488 nm, 405 nm and 635 nm lasers to detect the degree of fluorescence. Data were analyzed using FCS Express (De Novo Software, CA) analysis software.
(§2) Specific phosphoprotein expression of pERK, pS6, pAKT, pSTAT5, and pSTAT3 was examined in seven discrete phenotypically defined populations based on 7-color immunophenotyping (FIG. 1). The percent of responding (phosphorprotein positive) cells for each of these populations was determined from individual single parameter histograms based on a fixed integration region set on the inhibitor treated control at about 3% positives.
(§3) Using normal BM signaling profiles of Example 1 as comparison, analysis of 14 AML samples was carried out to identify differences in signaling responses. White blood cells from BM or peripheral blood (PB) samples were obtained from 14 diagnosed AML patients undergoing routine clinical flow cytometry analysis using IRB approved protocols. The AML patients included newly diagnosed AML, AMLs arising in a background of MDS, therapy related AMLs and previously diagnosed AML post therapy. The median age of the patients at diagnosis was 51 years (range: 29-75 years) and represented 5 female and 9 male patients. The median white blood cell was 6.4 million/mL (range: 0.9-106 M/mL) and the BM morphologic blast count was an average of 46% (range: 0%-90%).
(§4) Experiments performed to assess the signal transduction response after growth factor simulation were performed as described for Example 1.

pERK = assay: as above; type: cell-based, human
Procedure: as §1, §2, §3, §4

Molecule | pAKT, AML Sample (pAKT; patient AML5 (Example 3)) | pAKT activation kinetics compared to normal (pAKT; patient AML7 (Example 3), abnormal blasts) | pAKT, AML Sample (pAKT; patient AML11 (Example 3)) | pERK, AML Sample (pERK; patient AML2 (Example 3)) | pERK, AML Sample (first AML5 line) (pERK; patient AML5 (Example 3), normal value of this line is an S/N ratio) | pERK, AML Sample (pERK; patient AML6 (Example 3)) | pERK, AML Sample (pERK; patient AML11 (Example 3)) | pERK, AML Sample (pERK; patient AML12 (Example 3)) | pERK, AML Sample (pERK; patient AML13 (Example 3)) | pERK, AML Sample (pERK; patient AML1 (Example 3)) | pERK, AML Sample (pERK; patient AML5 (Example 3)) | pERK, AML Sample (pERK; patient AML9 (Example 3))
Stem Cell Factor [SCF] | typical upregulation of pAKT | significant delayed activation, and prolonged expression | 3.2 | 4.8 | 3.4 | 3.0 | 3.3 | 3.3 | 4.8 |  |  | 
B1 | 8.1 |  |  |  |  |  |  |  |  | 10.3 | 8.1 | 12.0

— patent US20130210034A1, “COMPLEX PHOSPHOPROTEIN ACTIVATION PROFILES” (BECKMAN COULTER, INC., priority 2005, published 2013)
